Assay results from patent US20250032623A1, “HETEROBIFUNCTIONAL COMPOUNDS AND THEIR USE IN TREATING DISEASE” (HALDA THERAPEUTICS OPCO, INC., priority 2021, published 2025).

What was measured:
HEK293 cells = assay: Cellular growth inhibition assay (CellTiter-Glo), HEK293 cells; type: cell-based; details: Homo sapiens, 72 h, three days compound treatment, CellTiter-Glo 2.0, read-out: CTG HEK293 GI50
Procedure, shortened: (§1)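 GI50 derived by four-parameter regression of luminescence (CellTiter-Glo 2.0) at Day 0 and Day 3, normalized to DMSO wells. Cells (HeLa, HEK293; 500/well, DMEM plus 10% FBS) were dosed with compound dilutions 24 h post-seeding and exposed for three days at 37 °C.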

HeLa cells = assay: Cellular growth inhibition assay (CellTiter-Glo), HeLa cells; type: cell-based; details: Homo sapiens, 72 h, three days compound treatment, CellTiter-Glo 2.0, read-out: CTG HELA GI50
Procedure, shortened: as §1

KRAS G12C = molecular target: T1, KRAS G12C (Homo sapiens, UniProt P01116, G12C); assay: KRAS G12C nucleotide exchange assay (SOS1 mediated, HTRF); type: biochemical; details: 1 hr pre-incubation at RT, read-out: IC50 (inhibition of KRas G12C)
T1 construct: Kras (aa 2-169), GST; purchased Reaction Biology Corporation (RBC)
Method: Exemplary compounds were tested for ability to inhibit KRas G12C.
KRAS target engagement (IC50 determination) was performed using a KRAS G12C nucleotide exchange assay (Reaction Biology Corporation). Specifically, compounds were tested against KRAS G12C in 10-point concentration IC50 mode with 3-fold serial dilution at a starting concentration of 10 μM. ARS1620 was used as a control. Compounds were pre-incubated with protein for 1 hr at RT. Parameters for the assay were:
In the method, Kras was mixed with a-GST Tb antibody (1.5× solution) and […] was delivered to reaction wells. Compounds were delivered using acoustic dispenser (Echo, Labcyte). Kras/aGST-Tb Ab/compound mixture was incubated for 1 hour at room temperature. A 3× solution of SOS1 and GTP* was prepared in reaction buffer. A […] aliquot of SOS1/GTP* solution was added to reaction well to initiate the exchange reaction. No—SOS1 reaction or max compound concentration was used as blank. IC50 determination was performed using a Sigmoidal dose response (variable slope) equation.

T1 sequence (P01116 2-169 isoform P01116-2 G12C): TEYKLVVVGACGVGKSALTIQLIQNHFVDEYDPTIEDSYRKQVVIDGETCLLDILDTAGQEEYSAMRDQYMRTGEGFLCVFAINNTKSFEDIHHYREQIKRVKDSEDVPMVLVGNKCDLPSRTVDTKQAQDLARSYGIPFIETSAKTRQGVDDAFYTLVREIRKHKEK

Row | Structure (SMILES) | GI50 (HEK293 cells) [nM] | GI50 (HeLa cells) [nM] | IC50 (KRAS G12C) [nM]
1 | CCc1cnn2c(NCc3ccc(OCCOCCOCCOCCOCCOCCOCCOC/C=C/C(=O)N4CCN(c5nc(OC[C@@H]6CCCN6C)nc6c5CCN(c5cccc7cccc(Cl)c57)C6)C[C@@H]4CC#N)nc3)cc(N3CCCC[C@H]3CCO)nc12 [Compound I-95] | 1500 to 5000 | > 5000 | 1000 to 5000
2 | C=C(F)C(=O)N1CCN(c2nc(OC[C@@H]3CCCN3CCOCCOCCNC(=O)c3ccc(Nc4ncc5c(n4)N(C4CCCC4)[C@H](CC)C(=O)N5C)c(OC)c3)nc3c2CCN(c2cccc4cccc(Cl)c24)C3)C[C@@H]1CC#N [Compound I-63, N-(2-(2-(2-((S)-2-(((7-(8-chloronaphthalen-1-yl)-4-((S)-3-(cyanomethyl)-4-(2-fluoroacryloyl)piperazin-1-yl)-5,6,7,8-tetrahydropyrido[3,4-d]pyrimidin-2-yl)oxy)methyl)pyrrolidin-1-yl)ethoxy)ethoxy)ethyl)-4-(((R)-8-cyclopentyl-7-ethyl-5-methyl-6-oxo-5,6,7,8-tetrahydropteridin-2-yl)amino)-3-methoxybenzamide] |  |  | < 100
3 | C=C(F)C(=O)N1CCN(c2nc(OC[C@@H]3CCCN3CCCNC(=O)c3ccc(Nc4ncc5c(n4)N(C4CCCC4)[C@H](CC)C(=O)N5C)c(OC)c3)nc3c2CCN(c2cccc4cccc(Cl)c24)C3)C[C@@H]1CC#N [Compound I-102, N-[3-[(2S)-2-[[7-(8-chloro-1-naphthyl)-4-[(3S)-3-(cyanomethyl)-4-(2-fluoroprop-2-enoyl)piperazin-1-yl]-6,8-dihydro-5H-pyrido[3,4-d]pyrimidin-2-yl]oxymethyl]pyrrolidin-1-yl]propyl]-4-[[(7R)-8-cyclopentyl-7-ethyl-5-methyl-6-oxo-7H-pteridin-2-yl]amino]-3-methoxy-benzamide] | 500 to 1500 |  | 100 to 1000
4 | C=C(F)C(=O)N1CCN(c2nc(OC[C@@H]3CCCN3CCCOCCOCCOCCNC(=O)c3ccc(Nc4ncc5c(n4)N(C4CCCC4)[C@H](CC)C(=O)N5C)c(OC)c3)nc3c2CCN(c2cccc4cccc(Cl)c24)C3)C[C@@H]1CC#N [Compound I-104, N-[2-[2-[2-[3-[(2S)-2-[[7-(8-chloro-1-naphthyl)-4-[(3S)-3-(cyanomethyl)-4-(2-fluoroprop-2-enoyl)piperazin-1-yl]-6,8-dihydro-5H-pyrido[3,4-d]pyrimidin-2-yl]oxymethyl]pyrrolidin-1-yl]propoxy]ethoxy]ethoxy]ethyl]-4-[[(7R)-8-cyclopentyl-7-ethyl-5-methyl-6-oxo-7H-pteridin-2-yl]amino]-3-methoxy-benzamide] | 500 to 1500 |  | < 100
5 | Cc1ccnc(C(C)C)c1-n1c(=O)nc(N2CCN(C(=O)/C=C/CN(C)CCOCCOCCOCCOCCOCCOCCOCCOCCON(C)C(=O)N3N=C(c4cc(F)ccc4F)SC3(CCCN)c3ccccc3)C[C@@H]2C)c2cc(F)c(-c3c(O)cccc3F)nc21 (stereo partly drawn) [Compound I-79] |  |  | 1000 to 5000
6 | C=C(F)C(=O)N1CCN(c2nc(OC[C@@H]3CCCN3CCCOCCOCCOCCOCCNC(=O)c3ccc(Nc4ncc5c(n4)N(C4CCCC4)[C@H](CC)C(=O)N5C)c(OC)c3)nc3c2CCN(c2cccc4cccc(Cl)c24)C3)C[C@@H]1CC#N [Compound I-105, N-[2-[2-[2-[2-[3-[(2S)-2-[[7-(8-chloro-1-naphthyl)-4-[(3S)-3-(cyanomethyl)-4-(2-fluoroprop-2-enoyl)piperazin-1-yl]-6,8-dihydro-5H-pyrido[3,4-d]pyrimidin-2-yl]oxymethyl]pyrrolidin-1-yl]propoxy]ethoxy]ethoxy]ethoxy]ethyl]-4-[[(7R)-8-cyclopentyl-7-ethyl-5-methyl-6-oxo-7H-pteridin-2-yl]amino]-3-methoxy-benzamide] | 500 to 1500 |  | < 100
7 | C=C(F)C(=O)N1CCN(c2nc(OCC3CCCN3CCOCCOCCOCCOCCOCCOCCOCCOCCNC(=O)c3cccc(-c4ccc5c(N6CCOCC6C)nc(N6CCOCC6C)nc5n4)c3)nc3c2CCN(c2cccc4cccc(Cl)c24)C3)CC1CC#N [Compound I-21, 3-[2,4-bis[(3R)-3-methylmorpholin-4-yl]pyrido[2,3-d]pyrimidin-7-yl]-N-[2-[2-[2-[2-[2-[2-[2-[2-[2-[(2S)-2-[[7-(8-chloro-1-naphthyl)-4-[(3S)-3-(cyanomethyl)-4-(2-fluoroprop-2-enoyl)piperazin-1-yl]-6,8-dihydro-SH-pyrido[3,4-d]pyrimidin-2-yl]oxymethyl]pyrrolidin-1-yl]ethoxy]ethoxy]ethoxy]ethoxy]ethoxy]ethoxy]ethoxy]ethoxy]ethyl]benzamide] |  |  | 100 to 1000
8 | CN(C/C=C/C(=O)N1CCN(c2nc(OC[C@@H]3CCCN3C)nc3c2CCN(c2cccc4cccc(Cl)c24)C3)C[C@@H]1CC#N)CCOCCOCCOCCOCCON(C)C(=O)N1N=C(c2cc(F)ccc2F)SC1(CCCN)c1ccccc1 (stereo partly drawn) [Compound I-96, 2-(3-aminopropyl)-N-[2-[2-[2-[2-[2-[[(E)-4-[(2S)-4-[7-(8-chloro-1-naphthyl)-2-[[(2S)-1-methylpyrrolidin-2-yl]methoxy]-6,8-dihydro-5H-pyrido[3,4-d]pyrimidin-4-yl]-2-(cyanomethyl)piperazin-1-yl]-4-oxo-but-2-enyl]-methylamino]ethoxy]ethoxy]ethoxy]ethoxy]ethoxy]-5-(2,5-difluorophenyl)-N-methyl-2-phenyl-1,3,4-thiadiazole-3-carboxamide] |  |  | < 100
9 | C=C(F)C(=O)N1CCN(c2nc(OC[C@@H]3CCCN3CCOCCOCCOCCOCCOCCOCCNC(=O)c3ccc(Nc4ncc5c(n4)N(C4CCCC4)[C@H](CC)C(=O)N5C)c(OC)c3)nc3c2CCN(c2cccc4cccc(Cl)c24)C3)C[C@@H]1CC#N [Compound I-65, N-[2-[2-[2-[2-[2-[2-[2-[(2S)-2-[[7-(8-chloro-1-naphthyl)-4-[(3S)-3-(cyanomethyl)-4-(2-fluoroprop-2-enoyl)piperazin-1-yl]-6,8-dihydro-5H-pyrido1[3,4-d]pyrimidin-2-yl]oxymethyl]pyrrolidin-1-yl]ethoxy]ethoxy]ethoxy]ethoxy]ethoxy]ethoxy]ethyl]-4-[1[(7R)-8-cyclopentyl-7-ethyl-5-methyl-6-oxo-7H-pteridin-2-yl]amino]-3-methoxy-benzamide] |  |  | 100 to 1000
10 | C=C(F)C(=O)N1CCN(c2nc(OC[C@@H]3CCCN3CCCOCCOCCNC(=O)c3ccc(Nc4ncc5c(n4)N(C4CCCC4)[C@H](CC)C(=O)N5C)c(OC)c3)nc3c2CCN(c2cccc4cccc(Cl)c24)C3)C[C@@H]1CC#N [Compound I-103, N-[2-[2-[3-[(2S)-2-1[[7-(8-chloro-1-naphthyl)-4-[(3S)-3-(cyanomethyl)-4-(2-fluoroprop-2-enoyl)piperazin-1-yl]-6,8-dihydro-5H-pyrido1[3,4-d]pyrimidin-2-yl]oxymethyl]pyrrolidin-1-yl]propoxy]ethoxy]ethyl]-4-[1[(7R)-8-cyclopentyl-7-ethyl-5-methyl-6-oxo-7H-pteridin-2-yl]amino]-3-methoxy-benzamide] | 500 to 1500 |  | < 100
11 | C=C(F)C(=O)N1CCN(c2nc(OC[C@@H]3CCCN3CCCN(C)C(=O)N3N=C(c4cc(F)ccc4F)S[C@@]3(CCCN)c3ccccc3)nc3c2CCN(c2cccc4cccc(Cl)c24)C3)C[C@@H]1CC#N [Compound I-97, (2S)-2-(3-aminopropyl)-N-[3-[(2S)-2-[[7-(8-chloro-1-naphthyl)-4-[(3S)-3-(cyanomethyl)-4-(2-fluoroprop-2-enoyl)piperazin-1-yl]-6,8-dihydro-SH-pyrido[3,4-d]pyrimidin-2-yl]oxymethyl]pyrrolidin-1-yl]propyl]-5-(2,5-difluorophenyl)-N-methyl-2-phenyl-1,3,4-thiadiazole-3-carboxamide] |  | 500 to 1500 | < 100
